System: not listed separately
Assay: In vitro intrinsic clearance in mouse liver microsomes
Assay type: in vitro ADME
Details: not given

microsomal CLint [µL/min/mg] | m CLint [μL/min/mg protein] | SMILES
31 | – | O=C1Nc2ccccc2C(=O)CCCc2ccccc21 [Compound 6, 6,7-Dihydrodibenzo[b,h]azecine-8,14(5H,13H)-dione]
18 | – | O=C1CCc2ccccc2CC(=O)c2ccccc2N1 [Compound 8, 8,13-Dihydrodibenzo[b,f]azecine-6,14(5H,7H)-dione]
14 | – | O=C1CCc2ccccc2C(=O)c2ccccc2N1 [Compound 9, 7,8-Dihydro-5H-dibenzo[b,e]azonine-6,13-dione]
76 | – | O=C1Nc2ccccc2C(=NO)CCc2ccccc21 [Compound 10, 13-(Hydroxyimino)-5,11,12,13-tetrahydro-6H-dibenzo[b,g]azonin-6-one]
54 | – | CO/N=C1\CCc2ccccc2C(=O)Nc2ccccc21 [Compound 11, (E)-13-(Methoxyimino)-5,11,12,13-tetrahydro-6H-dibenzo[b,g]azonin-6-one]
27 | – | O=C1Nc2ccccc2C(O)CCc2ccccc21 (stereo not drawn) [Compound 12, 13-hydroxy-5,11,12,13-tetrahydro-6H-dibenzo[b,g]azonin-6-one]
81 | – | O=C1Nc2ccccc2CCCc2ccccc21 [Compound 13, 5,11,12,13-Tetrahydro-6H-dibenzo[b,g]azonin-6-one]
220 | – | CN1C(=O)c2ccccc2CCC(=O)c2ccccc21 [Compound 14, 5-Methyl-11,12-dihydro-5H-dibenzo[b,g]azonine-6,13-dione]
– | > 870 | O=C1CCc2ccccc2C(=O)N2CCCc3cccc1c32 [Compound 15, 2,3,8,9-Tetrahydro-1H-benzo[7,8]azonino[3,2,1-i,j]-quinoline-7,14-dione]
16 | – | O=C1Oc2ccccc2C(=O)CCc2ccccc21 [Compound 16, 11,12-Dihydrodibenzo[b,g]oxonine-6,13-dione]
440 | – | COc1ccc2c(c1)C(=O)CCc1ccccc1C(=O)N2 [Compound 17, 2-Methoxy-11,12-dihydro-5H-dibenzo[b,g]azonine-6,13-dione]
< 7 | – | O=C(O)c1ccc2c(c1)C(=O)CCc1ccccc1C(=O)N2 [Compound 19, 6,13-Dioxo-6,11,12,13-tetrahydro-5H-dibenzo[b,g]-azonine-2-carboxylic Acid]
10 | – | NC(=O)c1ccc2c(c1)C(=O)CCc1ccccc1C(=O)N2 [Compound 20, 6,13-Dioxo-6,11,12,13-tetrahydro-5H-dibenzo[b,g]-azonine-2-carboxamide]
15 | – | O=C1Nc2ccc(C(=O)N3CCOCC3)cc2C(=O)CCc2ccccc21 [Compound 21, 2-(Morpholine-4-carbonyl)-11,12-dihydro-5H-dibenzo[b,g]azonine-6,13-dione]
20 | – | N#Cc1ccc2c(c1)C(=O)CCc1ccccc1C(=O)N2 [Compound 22, 6,13-Dioxo-6,11,12,13-tetrahydro-5H-dibenzo[b,g]-azonine-2-carbonitrile]

System: rat skeletal myoblast L6 cell line
Assay: Cytotoxicity, growth inhibition of L6 cells
Assay type: cell-based
Details: read-out: L6 IC50, mean from n ≥ 2

SMILES | IC50 [µM]
O=C1CCc2ccccc2C(=O)N2CCCc3cccc1c32 [Compound 15, 2,3,8,9-Tetrahydro-1H-benzo[7,8]azonino[3,2,1-i,j]-quinoline-7,14-dione] | 83

System: not listed separately
Assay: In vitro intrinsic clearance in human liver microsomes
Assay type: in vitro ADME
Details: not given

h CLint [μL/min/mg protein] | SMILES
310 | O=C1CCc2ccccc2C(=O)N2CCCc3cccc1c32 [Compound 15, 2,3,8,9-Tetrahydro-1H-benzo[7,8]azonino[3,2,1-i,j]-quinoline-7,14-dione]

Same assay, conditions: human, liver microsomes, h CLint

microsomal CLint [µL/min/mg] | SMILES
14 | O=C1Nc2ccccc2C(=O)CCCc2ccccc21 [Compound 6, 6,7-Dihydrodibenzo[b,h]azecine-8,14(5H,13H)-dione]
< 7 | O=C1CCc2ccccc2CC(=O)c2ccccc2N1 [Compound 8, 8,13-Dihydrodibenzo[b,f]azecine-6,14(5H,7H)-dione]
7 | O=C1CCc2ccccc2C(=O)c2ccccc2N1 [Compound 9, 7,8-Dihydro-5H-dibenzo[b,e]azonine-6,13-dione]
22 | O=C1Nc2ccccc2C(=NO)CCc2ccccc21 [Compound 10, 13-(Hydroxyimino)-5,11,12,13-tetrahydro-6H-dibenzo[b,g]azonin-6-one]
11 | CO/N=C1\CCc2ccccc2C(=O)Nc2ccccc21 [Compound 11, (E)-13-(Methoxyimino)-5,11,12,13-tetrahydro-6H-dibenzo[b,g]azonin-6-one]
11 | O=C1Nc2ccccc2C(O)CCc2ccccc21 (stereo not drawn) [Compound 12, 13-hydroxy-5,11,12,13-tetrahydro-6H-dibenzo[b,g]azonin-6-one]
62 | O=C1Nc2ccccc2CCCc2ccccc21 [Compound 13, 5,11,12,13-Tetrahydro-6H-dibenzo[b,g]azonin-6-one]
110 | CN1C(=O)c2ccccc2CCC(=O)c2ccccc21 [Compound 14, 5-Methyl-11,12-dihydro-5H-dibenzo[b,g]azonine-6,13-dione]
14 | O=C1Oc2ccccc2C(=O)CCc2ccccc21 [Compound 16, 11,12-Dihydrodibenzo[b,g]oxonine-6,13-dione]
23 | COc1ccc2c(c1)C(=O)CCc1ccccc1C(=O)N2 [Compound 17, 2-Methoxy-11,12-dihydro-5H-dibenzo[b,g]azonine-6,13-dione]
12 | O=C(O)c1ccc2c(c1)C(=O)CCc1ccccc1C(=O)N2 [Compound 19, 6,13-Dioxo-6,11,12,13-tetrahydro-5H-dibenzo[b,g]-azonine-2-carboxylic Acid]
< 7 | NC(=O)c1ccc2c(c1)C(=O)CCc1ccccc1C(=O)N2 [Compound 20, 6,13-Dioxo-6,11,12,13-tetrahydro-5H-dibenzo[b,g]-azonine-2-carboxamide]
11 | O=C1Nc2ccc(C(=O)N3CCOCC3)cc2C(=O)CCc2ccccc21 [Compound 21, 2-(Morpholine-4-carbonyl)-11,12-dihydro-5H-dibenzo[b,g]azonine-6,13-dione]
23 | N#Cc1ccc2c(c1)C(=O)CCc1ccccc1C(=O)N2 [Compound 22, 6,13-Dioxo-6,11,12,13-tetrahydro-5H-dibenzo[b,g]-azonine-2-carbonitrile]

System: not listed separately
Assay: Kinetic solubility at pH 6.5 by nephelometry
Assay type: physicochemical
Details: pH 6.5 phosphate buffer, 1% DMSO, solubility range by nephelometry

Kinetic Sol6.5 [µg/mL] | SMILES
25 to 50 | O=C1CCc2ccccc2C(=O)N2CCCc3cccc1c32 [Compound 15, 2,3,8,9-Tetrahydro-1H-benzo[7,8]azonino[3,2,1-i,j]-quinoline-7,14-dione]

System: Chloroquine-sensitive NF54 P. falciparum isolate
Assay: In vitro antiplasmodial activity, NF54
Assay type: cell-based, Plasmodium falciparum
Details: Plasmodium falciparum, NF54, read-out: P. falciparum IC50, NF54; mean from n ≥ 2

IC50 [µM] | SMILES
0.75 | O=C1Nc2ccccc2C(=O)CCCc2ccccc21 [Compound 6, 6,7-Dihydrodibenzo[b,h]azecine-8,14(5H,13H)-dione]
6.2 | O=C1CCc2ccccc2CC(=O)c2ccccc2N1 [Compound 8, 8,13-Dihydrodibenzo[b,f]azecine-6,14(5H,7H)-dione]
4.6 | O=C1CCc2ccccc2C(=O)c2ccccc2N1 [Compound 9, 7,8-Dihydro-5H-dibenzo[b,e]azonine-6,13-dione]
> 190 | O=C1Nc2ccccc2C(=NO)CCc2ccccc21 [Compound 10, 13-(Hydroxyimino)-5,11,12,13-tetrahydro-6H-dibenzo[b,g]azonin-6-one]
95 | CO/N=C1\CCc2ccccc2C(=O)Nc2ccccc21 [Compound 11, (E)-13-(Methoxyimino)-5,11,12,13-tetrahydro-6H-dibenzo[b,g]azonin-6-one]
83 | O=C1Nc2ccccc2C(O)CCc2ccccc21 (stereo not drawn) [Compound 12, 13-hydroxy-5,11,12,13-tetrahydro-6H-dibenzo[b,g]azonin-6-one]
100 | O=C1Nc2ccccc2CCCc2ccccc21 [Compound 13, 5,11,12,13-Tetrahydro-6H-dibenzo[b,g]azonin-6-one]
77 | CN1C(=O)c2ccccc2CCC(=O)c2ccccc21 [Compound 14, 5-Methyl-11,12-dihydro-5H-dibenzo[b,g]azonine-6,13-dione]
100 | O=C1Oc2ccccc2C(=O)CCc2ccccc21 [Compound 16, 11,12-Dihydrodibenzo[b,g]oxonine-6,13-dione]
0.037 | COc1ccc2c(c1)C(=O)CCc1ccccc1C(=O)N2 [Compound 17, 2-Methoxy-11,12-dihydro-5H-dibenzo[b,g]azonine-6,13-dione]
160 | O=C(O)c1ccc2c(c1)C(=O)CCc1ccccc1C(=O)N2 [Compound 19, 6,13-Dioxo-6,11,12,13-tetrahydro-5H-dibenzo[b,g]-azonine-2-carboxylic Acid]
24 | NC(=O)c1ccc2c(c1)C(=O)CCc1ccccc1C(=O)N2 [Compound 20, 6,13-Dioxo-6,11,12,13-tetrahydro-5H-dibenzo[b,g]-azonine-2-carboxamide]
7.8 | O=C1Nc2ccc(C(=O)N3CCOCC3)cc2C(=O)CCc2ccccc21 [Compound 21, 2-(Morpholine-4-carbonyl)-11,12-dihydro-5H-dibenzo[b,g]azonine-6,13-dione]
0.7 | N#Cc1ccc2c(c1)C(=O)CCc1ccccc1C(=O)N2 [Compound 22, 6,13-Dioxo-6,11,12,13-tetrahydro-5H-dibenzo[b,g]-azonine-2-carbonitrile]

Same assay, conditions: read-out: P. falciparum IC50; NF54; mean from n ≥ 2

IC50 [µM] | SMILES
100 | O=C1CCc2ccccc2C(=O)N2CCCc3cccc1c32 [Compound 15, 2,3,8,9-Tetrahydro-1H-benzo[7,8]azonino[3,2,1-i,j]-quinoline-7,14-dione]

Same assay, conditions: relative to compound 2

SMILES | fold less potent than 2 (antiplasmodial) [fold] | fold more potent than 2 (antiplasmodial)
O=C1Nc2ccccc2C(=O)CCCc2ccccc21 [Compound 6, 6,7-Dihydrodibenzo[b,h]azecine-8,14(5H,13H)-dione] | 4 | –
O=C1CCc2ccccc2CC(=O)c2ccccc2N1 [Compound 8, 8,13-Dihydrodibenzo[b,f]azecine-6,14(5H,7H)-dione] | 33 | –
COc1ccc2c(c1)C(=O)CCc1ccccc1C(=O)N2 [Compound 17, 2-Methoxy-11,12-dihydro-5H-dibenzo[b,g]azonine-6,13-dione] | – | roughly 5 fold
N#Cc1ccc2c(c1)C(=O)CCc1ccccc1C(=O)N2 [Compound 22, 6,13-Dioxo-6,11,12,13-tetrahydro-5H-dibenzo[b,g]-azonine-2-carbonitrile] | 3.7 | –

System: not listed separately
Assay: Chromatographic LogD7.4
Assay type: physicochemical
Details: chromatographically determined, pH 7.4

gLogD7.4 | SMILES
2.9 | O=C1CCc2ccccc2C(=O)N2CCCc3cccc1c32 [Compound 15, 2,3,8,9-Tetrahydro-1H-benzo[7,8]azonino[3,2,1-i,j]-quinoline-7,14-dione]

Same assay, conditions: gradient HPLC, Phenomenex Synergi Hydro-RP column, pH 7.4

chromatographic logD | SMILES
1.9 | O=C1Nc2ccccc2C(=O)CCCc2ccccc21 [Compound 6, 6,7-Dihydrodibenzo[b,h]azecine-8,14(5H,13H)-dione]
2.1 | O=C1CCc2ccccc2CC(=O)c2ccccc2N1 [Compound 8, 8,13-Dihydrodibenzo[b,f]azecine-6,14(5H,7H)-dione]
1.9 | O=C1CCc2ccccc2C(=O)c2ccccc2N1 [Compound 9, 7,8-Dihydro-5H-dibenzo[b,e]azonine-6,13-dione]
1.8 | O=C1Nc2ccccc2C(=NO)CCc2ccccc21 [Compound 10, 13-(Hydroxyimino)-5,11,12,13-tetrahydro-6H-dibenzo[b,g]azonin-6-one]
2.5 | CO/N=C1\CCc2ccccc2C(=O)Nc2ccccc21 [Compound 11, (E)-13-(Methoxyimino)-5,11,12,13-tetrahydro-6H-dibenzo[b,g]azonin-6-one]
1.5 | O=C1Nc2ccccc2C(O)CCc2ccccc21 (stereo not drawn) [Compound 12, 13-hydroxy-5,11,12,13-tetrahydro-6H-dibenzo[b,g]azonin-6-one]
2.6 | O=C1Nc2ccccc2CCCc2ccccc21 [Compound 13, 5,11,12,13-Tetrahydro-6H-dibenzo[b,g]azonin-6-one]
2.4 | CN1C(=O)c2ccccc2CCC(=O)c2ccccc21 [Compound 14, 5-Methyl-11,12-dihydro-5H-dibenzo[b,g]azonine-6,13-dione]
3.7 | O=C1Oc2ccccc2C(=O)CCc2ccccc21 [Compound 16, 11,12-Dihydrodibenzo[b,g]oxonine-6,13-dione]
2.1 | COc1ccc2c(c1)C(=O)CCc1ccccc1C(=O)N2 [Compound 17, 2-Methoxy-11,12-dihydro-5H-dibenzo[b,g]azonine-6,13-dione]
< 0 | O=C(O)c1ccc2c(c1)C(=O)CCc1ccccc1C(=O)N2 [Compound 19, 6,13-Dioxo-6,11,12,13-tetrahydro-5H-dibenzo[b,g]-azonine-2-carboxylic Acid]
0.8 | NC(=O)c1ccc2c(c1)C(=O)CCc1ccccc1C(=O)N2 [Compound 20, 6,13-Dioxo-6,11,12,13-tetrahydro-5H-dibenzo[b,g]-azonine-2-carboxamide]
1.3 | O=C1Nc2ccc(C(=O)N3CCOCC3)cc2C(=O)CCc2ccccc21 [Compound 21, 2-(Morpholine-4-carbonyl)-11,12-dihydro-5H-dibenzo[b,g]azonine-6,13-dione]
2.1 | N#Cc1ccc2c(c1)C(=O)CCc1ccccc1C(=O)N2 [Compound 22, 6,13-Dioxo-6,11,12,13-tetrahydro-5H-dibenzo[b,g]-azonine-2-carbonitrile]
